Measurements from US10940149B1, “Kinase inhibitor salts and compositions thereof” (HANDA ONCOLOGY, LLC, priority 2018, dated 2021).
Counter-ions that a name gives are not always drawn. Blank lines part the entries; values can stand above or below the compound they belong to.

Key:
physchem = conditions: 37 °C, pH 1, simulated gastric fluid, thermodynamic from solid
[1] = solubility of nilotinib salts, HPLC (Example 38A); format: physicochemical; conditions: 37 °C, pH 1, simulated gastric fluid, thermodynamic from solid
[2] = solubility of dasatinib salts at 37° C., HPLC (Example 47A); format: physicochemical; conditions: for solubility: thermodynamic from solid
[3] = HPLC impurity and stability of nilotinib lauryl sulfate salts and dosage forms (Example 62); format: physicochemical
Procedure: Mobile phase A was 0.25% Formic Acid/acetonitrile in a volume ratio of 90/10.
Mobile phase B was 0.1% Formic Acid/acetonitrile in a volume ratio of 10/90.
Additional diluent is added so the test sample is approximately 0.10 mg of nilotinib per mL.
The test sample of the dosage forms prepared in Examples 60 F and 60 G were prepared by the following procedure:
1. Cut the tip of the capsule with scissors and squeeze the contents from the hole into the 100-mL volumetric flask. Cut the capsule into two parts and add the parts to the flask. Add 80% full of ethanol, sonicate for 10 minutes and stir at 800 rpm for 30 minutes to dissolve the contents completely.
2. Dilute to volume with ethanol, mix well by inverting the flask NLT 10 times
3. Pipette 3 ml into 25-mL amber volumetric flask and add ethanol to volume, mix well by inverting the flask NLT 10 times. The test sample is approximately 0.096 mg of nilotinib per mL.
The nilotinib dilauryl sulfate salt prepared in Example 26 were tested for impurities and stability using HPLC with the following parameters:
The test sample of the nilotinib dilauryl sulfate salt prepared in Example 26 were prepared by weighing about 10 mg of nilotinib dilauryl sulfate (equivalent to 5 mg of nilotinib) and transfer into a 25-mL amber volumetric flask, adding 20 mL of diluent (ethanol), sonicating for about 5 minutes and stirring at 800 rpms for about 5 minutes until the nilotinib dilauryl sulfate is dissolved. Additional diluent is added so the test sample is approximately 0.20 mg of nilotinib per mL.

[4] = HPLC impurity and stability of dasatinib lauryl sulfate salts and capsules (Example 54); format: physicochemical
Procedure: The RRT was determined using HPLC with the following parameters:
The mobile phase A was 0.05 M aqueous Ammonium Acetate (pH 5.25)/Acetonitrile/Methanol in a volume ratio of 90/5/5.
The mobile phase B was 0.05 M aqueous Ammonium Acetate (pH 5.25)/Acetonitrile/Methanol in a volume ratio of 10/85/5.
Additional methanol is added so the test sample is approximately 0.20 mg of dasatinib per mL.

[5] = solubility of nintedanib salts at room temperature, HPLC (Example 25A); format: physicochemical; conditions: thermodynamic from solid
[6] = 60° C./75% R.H. 1 week, HDPE bottle, HPLC Inertsil ODS-3 (NLB-2LS method)
[7] = Room temp., HPLC Inertsil ODS-3 (NLB-2LS method)

solubility (physchem): 3360 µg/mL
SMILES: Cc1ccc(Nc2nccc(N(C)c3ccc4c(C)n(C)nc4c3)n2)cc1S(N)(=O)=O [Pazopanib Hydrochloride, pazopanib hydrochloride]

SMILES: Cc1cn(-c2cc(NC(=O)c3ccc(C)c(Nc4nccc(-c5cccnc5)n4)c3)cc(C(F)(F)F)c2)cn1 [Nilotinib HCl]
solubility [1]: 3800 µg/mL

aqueous solubility, pH dependence [2]: varied with pH
solubility ([2]; aqueous buffer, 0.05M acetate buffer, pH = 4.5): 86.9 µg/mL
solubility ([2]; aqueous buffer, 0.05M phosphate buffer, pH = 6.8): 0.18 µg/mL
solubility ([2]; simulated gastric fluid, 0.1N HCl, pH = 1.0): 654 µg/mL
SMILES: Cc1nc(Nc2ncc(C(=O)Nc3c(C)cccc3Cl)s2)cc(N2CCN(CCO)CC2)n1 [dasatinib]

SMILES: CCCCCCCCCCCCOS(=O)(=O)O.Cc1cn(-c2cc(NC(=O)c3ccc(C)c(Nc4nccc(-c5cccnc5)n4)c3)cc(C(F)(F)F)c2)cn1 [Example 46, nilotinib monolauryl sulfate]
impurity at RRT 1.16 ([3]; 60° C./75% R.H. 2 weeks, HDPE bottle, HPLC Xterra RP18 (NLB-1LS method)): 0.07%
impurity at RRT 1.16 ([3]; Room temp., HPLC Xterra RP18 (NLB-1LS method)): 0.07%

SMILES: CCCCCCCCCCCCOS(=O)(=O)O.CCCCCCCCCCCCOS(=O)(=O)O.Cc1nc(Nc2ncc(C(=O)Nc3c(C)cccc3Cl)s2)cc(N2CCN(CCO)CC2)n1 [Example 13, dasatinib dilauryl sulfate]
impurity at RRT 0.87 ([4]; 40° C./75% R.H., 1 Month): 0.06
impurity at RRT 0.94 (DAS PIP) ([4]; 40° C./75% R.H., 1 Month): 0.09
impurity at RRT 0.96 ([4]; 40° C./75% R.H., 1 Month): 0.14
impurity at RRT 1.31 (DAS-6) ([4]; 40° C./75% R.H., 1 Month): 0.04
impurity at RRT 0.87 ([4]; Initial): 0.06
impurity at RRT 0.94 (DAS PIP) ([4]; Initial): 0.09
impurity at RRT 0.96 ([4]; Initial): 0.13
impurity at RRT 1.31 (DAS-6) ([4]; Initial): 0.02

SMILES: CCCCCCCCCCCCOS(=O)(=O)O.Cc1nc(Nc2ncc(C(=O)Nc3c(C)cccc3Cl)s2)cc(N2CCN(CCO)CC2)n1 [Example 12, dasatinib monolauryl sulfate]
impurity at RRT 0.96 ([4]; 40° C./75% R.H., 1 Month): 0.09
impurity at RRT 1.10 (2-Chloro-6-methylaniline) ([4]; 40° C./75% R.H., 1 Month): 0.04
impurity at RRT 1.31 (DAS-6) ([4]; 40° C./75% R.H., 1 Month): 0.02
impurity at RRT 0.87 ([4]; 40° C./75% R.H., 3 Months): 0.02
impurity at RRT 0.94 (DAS PIP) ([4]; 40° C./75% R.H., 3 Months): 0.03
impurity at RRT 0.96 ([4]; 40° C./75% R.H., 3 Months): 0.10
impurity at RRT 1.10 (2-Chloro-6-methylaniline) ([4]; 40° C./75% R.H., 3 Months): 0.03
impurity at RRT 1.31 (DAS-6) ([4]; 40° C./75% R.H., 3 Months): 0.03
impurity at RRT 0.87 ([4]; Initial): 0.02
impurity at RRT 0.94 (DAS PIP) ([4]; Initial): 0.02
impurity at RRT 0.96 ([4]; Initial): 0.09
impurity at RRT 1.10 (2-Chloro-6-methylaniline) ([4]; Initial): 0.02
impurity at RRT 1.31 (DAS-6) ([4]; Initial): 0.02

SMILES: CCCCCCCCCCCCOS(=O)(=O)O.CCCCCCCCCCCCOS(=O)(=O)O.Cc1cn(-c2cc(NC(=O)c3ccc(C)c(Nc4nccc(-c5cccnc5)n4)c3)cc(C(F)(F)F)c2)cn1 [Example 26, nilotinib dilauryl sulfate]
impurity at RRT 0.81 [3, 6]: 0.05%
impurity at RRT 1.09 [3, 6]: 0.07%
impurity at RRT 1.16 [3, 6]: 0.11%
impurity at RRT 1.28 [3, 6]: 0.08%
impurity at RRT 1.09 [3, 7]: 0.07%
impurity at RRT 1.16 [3, 7]: 0.10%
impurity at RRT 1.28 [3, 7]: 0.02%

solubility ([5]; aqueous buffer, 0.05 M acetate buffer, pH = 4.5): 6260 µg/mL
solubility ([5]; aqueous buffer, 0.05 M phosphate buffer, pH = 6.8): 2.2 µg/mL
solubility ([5]; simulated gastric fluid, 0.1 N HCl, pH = 1.0): 107000 µg/mL
SMILES: COC(=O)c1ccc2c(c1)NC(=O)/C2=C(\Nc1ccc(N(C)C(=O)CN2CCN(C)CC2)cc1)c1ccccc1 [nintedanib esylate]
